This is an account of results in ChEMBL document CHEMBL1201862, “PubChem BioAssay data set” (2004).

Experiment [1] can be described thus: mitochondrial function rescue without frataxin homolog – Friedreich's ataxia, plus single-dose screen, dose response (AID 1465).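 Further: yeast depleted of Yfh1p frataxin homolog grown on glycerol needing respiration; WST-1 tetrazolium dye reduction as measure of cellular dehydrogenase metabolic activity.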 It is filed as functional.
Experiment [2] can be described thus: HPDE-C7 pancreatic duct cell viability loss – fluorescence, HTS (AID 430). The format is functional, cell-based. The following applies: Homo sapiens.
Experiment [3] has as its target Aryl hydrocarbon receptor (Homo sapiens, UniProt P35869). The following applies: Potency.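 Further: confirmatory quantitative high-throughput screen measuring activation of the AhR signaling pathway.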
A further experiment concerns H9c2. Briefly: cells. It is filed as functional, cell-based. Particulars: Rattus norvegicus, H9c2, Myocardium.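 Further: confirmatory concentration-response retest of ultra-high-throughput screening hits for modulation of myocardial damage; cell death induced by hydrogen peroxide oxidative stress; compound pretreatment for 60 min then peroxide exposure for 2 h; potency is for protecting the cells against peroxide damage rather than for killing them.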
Experiment [4] concerns Vero. The experiment is described as follows: cells. The format is functional, Chlorocebus sabaeus.
Experiment [5] has as its system Vero. The experiment is described as follows: cells. It is filed as functional, cell-based. Particulars: Chlorocebus sabaeus.
Experiment [6] can be described thus: viability loss of HPDE-C7K cells – cell-based, fluorescence, HTS, primary screen (AID 431). The format is functional. Particulars: Homo sapiens.
Experiment [7] deals with T1, ATP-dependent translocase ABCB1 (Homo sapiens, UniProt P08183). Briefly: P-gp JC-1 efflux blockade concentration-response – Jurkat-DNR cells, flow cytometry, set 2, dose response (AID 504569).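 Further: potency of pump inhibitors that raise cellular JC-1 green fluorescence up to the nicardipine level.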 The format is functional. Particulars: read-out: EC50_MICROM_.
The target in experiment [8] is T1, ATP-dependent translocase ABCB1. Briefly: inhibition of BCRP-mediated JC-1 efflux – Ig-MXP3 cells, flow cytometry, set 2, dose response (AID 504566).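 Further: flow cytometry median green fluorescence of retained JC-1 dye; potency of efflux pump inhibition measured as rising substrate retention.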 The following applies: read-out: EC50_MICROM_. The format is functional. A general note: Flow cytometry measures light scatter and fluorescence of single cells or particles in a stream.
The target of another experiment is Steroidogenic factor 1 (Homo sapiens, UniProt Q13285). Briefly: Counterscreen for inverse agonists of the liver receptor homolog-1 (LRH-1; NR5A2): Luminescence-based cell-based high throughput dose response assay to identify inverse agonists of the Steroidogenic Factor 1 Nuclear Receptor (SF1; NR5A1). It is filed as functional. For orientation: Counterscreens check selectivity or assay interference.

The target in experiment [9] is Nuclear receptor subfamily 5 group A member 2 (Homo sapiens, UniProt O00482). The format is functional, cell-based.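 Further: HEK293T cells transfected with LRH-1 and a StAR promoter luciferase reporter; potency for inhibitors that lower LRH-1 driven reporter light.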
For experiment [10], the target named is T2, Polyadenylate-binding protein 1 (Homo sapiens, UniProt P11940). Briefly: MLLE domain peptide-binding blockers, IC50 – biochemical, fluorescence polarization, FITC-PAM2 peptide, dose response (AID 602259). The following applies: read-out: IC50_Mean. The format is functional. (In general: Fluorescence polarisation rises when a labelled molecule tumbles more slowly, as on binding a larger partner.)

A short description of experiment [11]: nonselective StAR promoter luciferase inhibitors – cell-based, luminescence, luciferase reporter, counter-screen for LRH-1 inverse agonist project, dose response (AID 651969). It is filed as functional.
Experiment [12] concerns the target T2, Polyadenylate-binding protein 1. Briefly: MLLE binding blockers, Cy5 peptide tracer – biochemical, fluorescence polarization, Cy5-PAM2 peptide, secondary, miRNA deadenylation inhibitor project, dose response (AID 602260). The format is functional. The following applies: read-out: IC50_Mean.
The nature of experiment [13]: Fluorescence-based cell-based high throughput dose response assay for inhibitors of the interaction of nucleotide-binding oligomerization domain containing 2 (NOD2) and the receptor-interacting serine-threonine kinase 2 (RIPK2). It is filed as functional. Particulars: Homo sapiens.
In experiment [14] the target is T3, Mitochondrial peptide methionine sulfoxide reductase (Bos taurus, UniProt P54149). The format is functional.
The next experiment concerns the target T4, Caspase-6 (Homo sapiens, UniProt P55212).
T4 sequence (P55212 whole entry): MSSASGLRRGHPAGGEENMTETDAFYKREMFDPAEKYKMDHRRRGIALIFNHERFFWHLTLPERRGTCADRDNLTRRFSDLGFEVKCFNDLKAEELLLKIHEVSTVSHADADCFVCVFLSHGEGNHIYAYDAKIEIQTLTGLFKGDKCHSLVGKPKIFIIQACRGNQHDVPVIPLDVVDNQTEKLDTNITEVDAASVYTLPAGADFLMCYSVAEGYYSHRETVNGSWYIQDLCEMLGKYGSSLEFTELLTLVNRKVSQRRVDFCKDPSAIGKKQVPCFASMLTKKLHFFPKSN
The experiment is described as follows: inhibition of CASP6 peptide cleavage – biochemical, VEID-R110 fluorescence, cherry-pick, dose response (AID 720632).

Experiment [15] concerns the target T5, Sentrin-specific protease 6 (Homo sapiens, UniProt Q9GZR1).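 Further: Luminescence-based dose-response confirmatory assay of SENP6 inhibition, following up an ultra-high-throughput screen.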
T5 sequence (Q9GZR1 whole entry): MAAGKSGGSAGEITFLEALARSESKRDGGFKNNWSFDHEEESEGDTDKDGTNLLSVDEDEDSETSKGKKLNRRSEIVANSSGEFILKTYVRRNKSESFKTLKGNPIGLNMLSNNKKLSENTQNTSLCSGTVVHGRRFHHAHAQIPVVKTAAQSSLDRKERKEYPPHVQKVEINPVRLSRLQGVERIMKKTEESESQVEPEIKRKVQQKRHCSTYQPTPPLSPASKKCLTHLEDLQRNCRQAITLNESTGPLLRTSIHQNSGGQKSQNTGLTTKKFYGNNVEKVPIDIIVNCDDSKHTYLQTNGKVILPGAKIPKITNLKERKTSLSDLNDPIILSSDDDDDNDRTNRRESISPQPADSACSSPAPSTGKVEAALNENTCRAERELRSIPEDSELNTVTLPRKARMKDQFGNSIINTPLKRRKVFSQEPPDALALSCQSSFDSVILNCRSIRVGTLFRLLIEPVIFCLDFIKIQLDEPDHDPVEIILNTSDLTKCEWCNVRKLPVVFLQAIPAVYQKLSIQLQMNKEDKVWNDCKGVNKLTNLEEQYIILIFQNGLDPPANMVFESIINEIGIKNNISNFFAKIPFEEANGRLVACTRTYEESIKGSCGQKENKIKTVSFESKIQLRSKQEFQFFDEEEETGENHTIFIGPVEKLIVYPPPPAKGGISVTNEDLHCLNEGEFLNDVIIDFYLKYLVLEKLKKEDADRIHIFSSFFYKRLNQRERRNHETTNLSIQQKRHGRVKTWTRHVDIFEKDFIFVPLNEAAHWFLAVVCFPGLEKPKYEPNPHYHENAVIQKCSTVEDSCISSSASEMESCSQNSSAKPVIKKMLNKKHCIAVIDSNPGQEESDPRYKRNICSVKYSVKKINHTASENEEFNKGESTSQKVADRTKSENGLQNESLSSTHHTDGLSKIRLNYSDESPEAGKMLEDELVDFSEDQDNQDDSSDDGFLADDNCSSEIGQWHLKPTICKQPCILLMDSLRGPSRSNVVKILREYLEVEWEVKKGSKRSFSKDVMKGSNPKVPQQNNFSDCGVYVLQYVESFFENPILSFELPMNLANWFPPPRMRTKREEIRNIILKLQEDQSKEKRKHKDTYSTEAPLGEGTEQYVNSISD
The format is functional.

Experiment [16] has as its target T3, Mitochondrial peptide methionine sulfoxide reductase. The experiment is described as follows: Absorbance-based biochemical high throughput dose response assay for activators of Methionine sulfoxide reductase A (MsrA). The format is functional.
The next experiment deals with T6, Caspase-3 (Homo sapiens, UniProt P42574).
T6 sequence (P42574 whole entry): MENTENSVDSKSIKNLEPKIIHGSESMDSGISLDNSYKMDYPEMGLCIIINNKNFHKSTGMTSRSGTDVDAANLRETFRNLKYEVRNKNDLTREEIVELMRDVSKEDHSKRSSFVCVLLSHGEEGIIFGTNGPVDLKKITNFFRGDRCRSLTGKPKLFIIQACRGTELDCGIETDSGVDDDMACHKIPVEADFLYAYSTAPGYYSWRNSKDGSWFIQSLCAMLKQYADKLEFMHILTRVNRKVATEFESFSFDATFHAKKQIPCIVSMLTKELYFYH
The format is functional.

Experiment [17] addresses T7, Sentrin-specific protease 7 (Homo sapiens, UniProt Q9BQF6).
T7 sequence (Q9BQF6 whole entry): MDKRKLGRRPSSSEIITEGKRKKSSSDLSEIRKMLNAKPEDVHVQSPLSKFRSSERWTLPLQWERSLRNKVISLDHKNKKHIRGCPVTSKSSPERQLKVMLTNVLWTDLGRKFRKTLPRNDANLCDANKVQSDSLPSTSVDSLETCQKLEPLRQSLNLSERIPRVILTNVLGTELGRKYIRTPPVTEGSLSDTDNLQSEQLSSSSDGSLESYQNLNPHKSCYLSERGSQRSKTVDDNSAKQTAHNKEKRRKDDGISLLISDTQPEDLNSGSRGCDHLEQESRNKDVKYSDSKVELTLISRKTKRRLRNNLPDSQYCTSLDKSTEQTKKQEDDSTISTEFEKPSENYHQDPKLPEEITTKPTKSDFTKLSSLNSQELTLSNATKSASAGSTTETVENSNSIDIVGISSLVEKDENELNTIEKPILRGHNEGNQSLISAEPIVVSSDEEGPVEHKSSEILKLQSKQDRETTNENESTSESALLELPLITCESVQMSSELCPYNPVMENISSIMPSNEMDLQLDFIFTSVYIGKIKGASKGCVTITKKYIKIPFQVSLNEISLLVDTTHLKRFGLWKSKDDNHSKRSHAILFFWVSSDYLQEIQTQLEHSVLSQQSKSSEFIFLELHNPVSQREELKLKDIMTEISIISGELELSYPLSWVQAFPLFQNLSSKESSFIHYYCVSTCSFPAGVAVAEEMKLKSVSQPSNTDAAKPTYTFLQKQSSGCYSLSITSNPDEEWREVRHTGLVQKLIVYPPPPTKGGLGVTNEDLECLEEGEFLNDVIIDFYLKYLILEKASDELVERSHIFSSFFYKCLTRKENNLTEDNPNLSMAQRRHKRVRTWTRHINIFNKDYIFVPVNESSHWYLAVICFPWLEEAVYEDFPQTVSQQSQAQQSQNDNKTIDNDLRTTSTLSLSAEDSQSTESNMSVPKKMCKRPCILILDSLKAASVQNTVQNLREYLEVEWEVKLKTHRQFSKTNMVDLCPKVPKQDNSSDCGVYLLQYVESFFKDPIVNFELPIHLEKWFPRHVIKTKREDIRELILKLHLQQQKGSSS
The format is functional.

The target of experiment [18] is Heat shock protein HSP 90-alpha (Homo sapiens, UniProt P07900). The format is functional, organism-based.
The next experiment deals with Caspase-8 (Homo sapiens, UniProt Q14790). The experiment is described as follows: inhibitors of purified CASP8 protease – biochemical, Z-IETD-R110 fluorescence, cherry-picked samples, selectivity assay for caspase-6 inhibitor project, dose response (AID 743294).
For experiment [19], the target named is T8, Sentrin-specific protease 8 (Homo sapiens, UniProt Q96LD8).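 Further: luminescence read-out of SENP8 inhibition, dose-response confirmation following an ultra-high-throughput screen.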
T8 sequence (Q96LD8 whole entry): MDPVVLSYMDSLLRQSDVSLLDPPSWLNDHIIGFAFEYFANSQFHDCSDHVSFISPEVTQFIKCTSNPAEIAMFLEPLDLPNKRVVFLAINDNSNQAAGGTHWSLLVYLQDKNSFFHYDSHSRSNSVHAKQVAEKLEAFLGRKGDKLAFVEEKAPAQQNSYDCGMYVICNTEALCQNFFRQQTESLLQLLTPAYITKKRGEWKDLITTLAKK
The format is functional.

Another experiment addresses Caspase-9 (Homo sapiens, UniProt P55211). The experiment is described as follows: inhibitors of purified CASP9 protease – biochemical, fluorescence, plate reader, cherry-picked samples, selectivity assay for caspase-6 inhibitor project, dose response (AID 743293).
A further experiment deals with T9, Caspase-7 (Homo sapiens, UniProt P55210).
T9 sequence (P55210 whole entry): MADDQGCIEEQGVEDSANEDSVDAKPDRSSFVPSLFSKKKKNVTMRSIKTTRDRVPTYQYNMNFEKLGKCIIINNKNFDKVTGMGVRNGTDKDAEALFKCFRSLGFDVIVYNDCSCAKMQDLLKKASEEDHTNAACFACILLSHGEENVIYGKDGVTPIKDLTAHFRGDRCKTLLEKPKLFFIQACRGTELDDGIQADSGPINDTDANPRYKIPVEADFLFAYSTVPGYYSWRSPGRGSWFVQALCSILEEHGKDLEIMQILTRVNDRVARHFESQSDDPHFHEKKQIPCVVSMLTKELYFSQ
Briefly: caspase-7 enzyme inhibition, selectivity check – biochemical, DEVD-R110 fluorescence, cherry-pick, selectivity assay for caspase-6 inhibitor project, dose response (AID 743295). It is filed as functional.

Active and inactive are the calls of the source.

T1 sequence (P08183 whole entry): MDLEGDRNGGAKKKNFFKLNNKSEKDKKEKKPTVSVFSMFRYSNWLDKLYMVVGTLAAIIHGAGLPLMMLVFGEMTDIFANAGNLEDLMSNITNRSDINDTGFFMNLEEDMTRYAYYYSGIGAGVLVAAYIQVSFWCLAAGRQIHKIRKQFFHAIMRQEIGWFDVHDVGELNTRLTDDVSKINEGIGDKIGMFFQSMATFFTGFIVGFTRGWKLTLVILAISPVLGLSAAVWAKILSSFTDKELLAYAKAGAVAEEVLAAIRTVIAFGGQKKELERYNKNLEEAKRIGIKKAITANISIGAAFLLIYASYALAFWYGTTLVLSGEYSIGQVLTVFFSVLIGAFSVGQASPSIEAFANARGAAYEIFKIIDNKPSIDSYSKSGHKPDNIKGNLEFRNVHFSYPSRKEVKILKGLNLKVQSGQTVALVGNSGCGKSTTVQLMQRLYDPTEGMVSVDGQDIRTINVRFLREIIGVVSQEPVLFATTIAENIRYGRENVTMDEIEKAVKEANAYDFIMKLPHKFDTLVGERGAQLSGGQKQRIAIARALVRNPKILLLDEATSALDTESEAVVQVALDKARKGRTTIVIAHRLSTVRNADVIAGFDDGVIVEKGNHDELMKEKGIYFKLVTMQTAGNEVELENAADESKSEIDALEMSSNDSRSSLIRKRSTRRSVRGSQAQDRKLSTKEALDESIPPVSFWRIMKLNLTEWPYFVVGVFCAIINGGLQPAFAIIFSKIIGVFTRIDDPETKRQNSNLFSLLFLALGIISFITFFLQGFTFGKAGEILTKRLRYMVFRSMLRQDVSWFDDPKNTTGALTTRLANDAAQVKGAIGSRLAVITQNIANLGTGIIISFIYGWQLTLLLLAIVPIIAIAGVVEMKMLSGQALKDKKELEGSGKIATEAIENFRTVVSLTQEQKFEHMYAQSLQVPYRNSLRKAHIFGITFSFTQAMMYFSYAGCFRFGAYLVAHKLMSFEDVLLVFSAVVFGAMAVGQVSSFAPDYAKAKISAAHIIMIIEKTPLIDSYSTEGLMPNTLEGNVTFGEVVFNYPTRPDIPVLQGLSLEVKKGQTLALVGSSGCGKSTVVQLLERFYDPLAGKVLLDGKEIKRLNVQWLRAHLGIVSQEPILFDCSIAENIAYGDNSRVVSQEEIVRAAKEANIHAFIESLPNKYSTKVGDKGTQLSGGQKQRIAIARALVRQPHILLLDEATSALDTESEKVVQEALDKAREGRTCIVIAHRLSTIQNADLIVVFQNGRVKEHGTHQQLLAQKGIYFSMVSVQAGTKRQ
T3 sequence (P54149 whole entry): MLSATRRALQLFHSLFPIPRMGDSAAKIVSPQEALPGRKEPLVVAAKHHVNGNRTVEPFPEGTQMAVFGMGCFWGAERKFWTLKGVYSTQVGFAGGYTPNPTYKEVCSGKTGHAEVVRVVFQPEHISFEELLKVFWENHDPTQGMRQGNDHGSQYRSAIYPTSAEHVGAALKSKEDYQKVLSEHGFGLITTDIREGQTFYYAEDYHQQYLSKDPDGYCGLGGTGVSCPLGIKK
T2 sequence (P11940 whole entry, the tested form may be a part): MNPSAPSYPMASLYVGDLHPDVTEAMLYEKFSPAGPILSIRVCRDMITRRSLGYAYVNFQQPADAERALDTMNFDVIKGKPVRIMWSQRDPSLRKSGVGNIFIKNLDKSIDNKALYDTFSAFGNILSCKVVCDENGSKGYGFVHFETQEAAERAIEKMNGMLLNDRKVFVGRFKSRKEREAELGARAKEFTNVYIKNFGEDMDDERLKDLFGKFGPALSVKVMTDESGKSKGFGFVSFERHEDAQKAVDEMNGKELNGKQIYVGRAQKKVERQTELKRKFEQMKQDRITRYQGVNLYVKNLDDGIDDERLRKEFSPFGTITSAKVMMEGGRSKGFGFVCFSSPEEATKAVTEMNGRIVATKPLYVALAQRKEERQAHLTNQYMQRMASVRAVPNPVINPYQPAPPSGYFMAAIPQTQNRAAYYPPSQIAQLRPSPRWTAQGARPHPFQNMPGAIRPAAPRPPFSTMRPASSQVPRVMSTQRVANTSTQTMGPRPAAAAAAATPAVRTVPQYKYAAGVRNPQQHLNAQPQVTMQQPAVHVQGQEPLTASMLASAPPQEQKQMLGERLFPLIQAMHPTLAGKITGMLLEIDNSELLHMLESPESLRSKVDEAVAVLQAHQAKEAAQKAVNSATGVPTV
Steroidogenic factor 1, sequence (Q13285 whole entry): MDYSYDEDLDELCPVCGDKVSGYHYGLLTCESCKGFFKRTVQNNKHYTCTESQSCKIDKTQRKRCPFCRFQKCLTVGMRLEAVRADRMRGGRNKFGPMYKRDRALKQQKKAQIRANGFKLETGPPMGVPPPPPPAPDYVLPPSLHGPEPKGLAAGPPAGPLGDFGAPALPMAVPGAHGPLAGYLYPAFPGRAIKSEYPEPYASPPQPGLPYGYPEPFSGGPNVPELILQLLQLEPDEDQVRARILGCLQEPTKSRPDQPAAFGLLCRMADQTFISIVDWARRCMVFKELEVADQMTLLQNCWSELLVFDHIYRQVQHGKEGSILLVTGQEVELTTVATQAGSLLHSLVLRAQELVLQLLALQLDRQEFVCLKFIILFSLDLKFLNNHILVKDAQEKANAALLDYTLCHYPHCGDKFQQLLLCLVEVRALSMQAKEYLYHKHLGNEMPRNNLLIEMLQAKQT
Caspase-8, sequence (Q14790 217-374 limits assumed): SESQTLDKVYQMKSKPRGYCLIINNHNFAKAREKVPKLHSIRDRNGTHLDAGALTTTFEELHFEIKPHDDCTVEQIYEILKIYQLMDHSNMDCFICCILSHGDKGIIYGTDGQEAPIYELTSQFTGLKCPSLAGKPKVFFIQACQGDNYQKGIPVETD
Caspase-8, sequence (Q14790 385-479 limits assumed): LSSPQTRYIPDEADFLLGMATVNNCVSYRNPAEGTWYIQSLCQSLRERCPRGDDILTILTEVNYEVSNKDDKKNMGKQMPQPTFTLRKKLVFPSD
Aryl hydrocarbon receptor, sequence (P35869 whole entry): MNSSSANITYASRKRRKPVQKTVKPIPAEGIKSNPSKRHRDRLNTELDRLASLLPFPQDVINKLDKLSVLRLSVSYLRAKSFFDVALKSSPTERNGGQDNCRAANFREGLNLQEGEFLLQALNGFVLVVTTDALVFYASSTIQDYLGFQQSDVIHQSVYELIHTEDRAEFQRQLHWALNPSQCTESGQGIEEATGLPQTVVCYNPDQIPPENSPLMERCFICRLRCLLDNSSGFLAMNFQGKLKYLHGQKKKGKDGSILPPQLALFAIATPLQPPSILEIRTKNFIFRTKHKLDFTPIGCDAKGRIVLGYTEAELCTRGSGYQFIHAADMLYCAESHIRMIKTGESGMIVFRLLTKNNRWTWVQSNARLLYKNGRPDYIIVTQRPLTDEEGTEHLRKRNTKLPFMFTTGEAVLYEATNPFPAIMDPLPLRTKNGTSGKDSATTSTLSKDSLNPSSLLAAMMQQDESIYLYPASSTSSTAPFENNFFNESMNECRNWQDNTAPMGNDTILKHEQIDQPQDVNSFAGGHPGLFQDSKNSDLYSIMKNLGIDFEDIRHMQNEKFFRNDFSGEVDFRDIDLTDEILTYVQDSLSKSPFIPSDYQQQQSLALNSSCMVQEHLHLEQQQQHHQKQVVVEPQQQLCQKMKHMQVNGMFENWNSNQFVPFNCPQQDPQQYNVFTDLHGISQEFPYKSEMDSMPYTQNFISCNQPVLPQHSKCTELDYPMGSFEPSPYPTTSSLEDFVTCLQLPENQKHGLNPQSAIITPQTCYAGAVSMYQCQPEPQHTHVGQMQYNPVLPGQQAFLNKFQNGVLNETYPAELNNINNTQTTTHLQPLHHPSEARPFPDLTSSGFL
Caspase-9, sequence (P55211 1-315 limits assumed): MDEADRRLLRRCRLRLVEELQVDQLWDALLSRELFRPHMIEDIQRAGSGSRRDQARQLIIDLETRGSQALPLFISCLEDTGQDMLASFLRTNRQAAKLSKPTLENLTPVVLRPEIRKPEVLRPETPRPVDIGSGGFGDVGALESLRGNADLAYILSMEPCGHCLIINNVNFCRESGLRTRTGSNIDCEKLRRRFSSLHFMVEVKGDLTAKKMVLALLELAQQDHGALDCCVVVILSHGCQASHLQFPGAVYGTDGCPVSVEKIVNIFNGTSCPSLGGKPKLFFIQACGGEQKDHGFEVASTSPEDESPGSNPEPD
Caspase-9, sequence (P55211 331-416 limits assumed): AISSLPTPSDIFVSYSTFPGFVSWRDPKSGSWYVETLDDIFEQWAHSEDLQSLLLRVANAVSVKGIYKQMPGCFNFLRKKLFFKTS
Nuclear receptor subfamily 5 group A member 2, sequence (O00482 whole entry, the tested form may be a part): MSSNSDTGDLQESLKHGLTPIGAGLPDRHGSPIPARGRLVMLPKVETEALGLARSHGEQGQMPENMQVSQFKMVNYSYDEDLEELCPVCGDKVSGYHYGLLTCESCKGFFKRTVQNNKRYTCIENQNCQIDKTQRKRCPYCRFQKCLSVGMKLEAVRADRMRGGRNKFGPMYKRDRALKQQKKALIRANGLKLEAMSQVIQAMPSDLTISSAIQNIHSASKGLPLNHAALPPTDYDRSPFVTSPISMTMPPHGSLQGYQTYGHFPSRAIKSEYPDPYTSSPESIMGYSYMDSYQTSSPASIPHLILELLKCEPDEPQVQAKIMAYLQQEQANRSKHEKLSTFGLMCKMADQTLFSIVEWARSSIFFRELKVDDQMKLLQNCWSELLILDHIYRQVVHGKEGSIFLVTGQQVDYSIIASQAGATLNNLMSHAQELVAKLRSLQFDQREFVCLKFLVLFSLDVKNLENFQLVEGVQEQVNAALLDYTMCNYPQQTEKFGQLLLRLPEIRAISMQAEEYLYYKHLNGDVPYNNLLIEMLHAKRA

As usually defined, the AC50 is the midpoint of the concentration-response curve, whichever way the signal moves. Usually CC50 stands for the concentration giving 50% cytotoxicity. In the case of `COc1cc(/C=C/C(=O)CC(=O)/C=C/c2ccc(O)c(OC)c2)ccc1O` [CURCUMIN], the EC50 in experiment [1] is > 100 µM (active); in experiment [2], 13.1 µM (active); in experiment [6], 6.97 µM (active). The AC50 in experiment [3] was 56.2 µM (inconclusive). In addition, the IC50 in the experiment on H9c2 is > 79 µM (inactive); with Vero [5] it was > 25 µM (active). For the same compound, the CC50 with Vero [4] was 19.5 µM (active); with Vero [4] (Chlorocebus sabaeus, Vero), 19.9 µM (active).
Turning to `O=C(c1ccco1)N1CCN(c2cc(-c3ccccc3)nc3cc(-c4ccc(F)cc4)nn23)CC1`, the EC50 in experiment [7] was 3.4 µM (active); in [8], 1.05 µM (active).
As to `O=C(CSc1nnc(CNC(=O)c2ccccc2F)o1)Nc1ccc2c(c1)OCCO2`, the IC50 was 1.56 µM (active) on Steroidogenic factor 1; 17.6 µM (inactive) in [9]; > 66 µM (inactive) in experiment [10]; 35.9 µM (inactive) in experiment [11]; > 66 µM (inactive) in experiment [12].
In the case of `COc1ccc(C2=CC(=O)N(Nc3ccccc3)C2=O)cc1`, the IC50 in experiment [13] was 4.21 µM (active).
Regarding `Cc1ccccc1/C=N/n1c(S)nnc1C1CCCCC1`, in experiment [14], the IC50 was 155 µM (inactive).
`COc1ccccc1NC(=O)COC(=O)c1ccc([N+](=O)[O-])s1`: the AC50 at Caspase-6 is 1.95 µM (active); in experiment [18] it was 6.12 µM (active); on Caspase-8, 22 µM (active); at Caspase-9 it was 23.7 µM (active); on Caspase-7 it was 16.4 µM (active). The IC50 is 4.94 µM (active) in [15], 11.5 µM (active) at Caspase-3, 7.35 µM (active) in [17] and 3.83 µM (active) in experiment [19]. The EC50 in experiment [16] is 39.4 µM (inactive).
